Values of other authors as cited in patent US20080090885A1 (priority 2006, published 2008).

Experiments:
AT1 receptor = molecular target: T1, AT1 receptor (Homo sapiens, UniProt P30556)
T1 sequence (P30556 1-359): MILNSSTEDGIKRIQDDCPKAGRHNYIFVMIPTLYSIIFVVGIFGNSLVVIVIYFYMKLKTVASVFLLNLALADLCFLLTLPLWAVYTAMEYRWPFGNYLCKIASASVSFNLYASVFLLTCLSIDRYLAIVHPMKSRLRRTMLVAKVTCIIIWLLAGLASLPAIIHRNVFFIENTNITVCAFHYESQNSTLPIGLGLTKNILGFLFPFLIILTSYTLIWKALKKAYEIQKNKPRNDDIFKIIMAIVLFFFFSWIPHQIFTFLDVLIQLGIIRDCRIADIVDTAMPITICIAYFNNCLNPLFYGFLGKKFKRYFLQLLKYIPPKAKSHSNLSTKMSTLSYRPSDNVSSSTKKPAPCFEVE

[1] = for half-life: in vivo

Row | SMILES | type of AT1 receptor antagonism (AT1 receptor) | half-life [1] | oral bioavailability ([1]; oral) | peak plasma levels (time to peak) ([1]; oral) [h]
1 | CCCCc1nc(Cl)c(C(=O)O)n1Cc1ccc(-c2ccccc2-c2nn[nH]n2)cc1 [EXP-3174, losartan 5-carboxylic acid] | non-competitive AT1 receptor antagonist | 6 to 9 h |  | 
2 | CCCCc1nc(Cl)c(CO)n1Cc1ccc(-c2ccccc2-c2nn[nH]n2)cc1 [Losartan] | potent, competitive AT1 receptor antagonist | about 2 hours | about 33% | 1
